Measured values as given in patent US20100331384A1, “GUANIDINE BASED COMPOUNDS” (UNIVERSIDAD DEL PAIS VASCO/EUSKAL HERRIKO UNIBERTSITATEA, priority 2007, published 2010).
Entries after “also recorded” stand apart in the source; their conditions may differ. One block for each compound: values may come before it.

Key:
α2-ARs [1] = settings: starred compounds, affinity reported in reference 9 by the same group; cited from earlier work
α2-ARs [2] = settings: previously described, reference 9; cited from earlier work
α2-ARs [3] = target: T1, α2-ARs (Homo sapiens, UniProt P08913); test: [35S]GTPγS binding functional assay, compounds alone; format: biochemical; settings: for Emax: read-out: Emax (%), percentage efficacy relative to UK14304; for agonistic or antagonistic properties in [35S]GTPγS experiments: human brain PFC; for stimulation of [35S]GTPγS binding by the compound on its own: human brain PFC membranes
T1 construct: other: human brain tissue in vitro; other: stimulation of [35S]GTPγS b
T1 sequence (P08913 whole entry): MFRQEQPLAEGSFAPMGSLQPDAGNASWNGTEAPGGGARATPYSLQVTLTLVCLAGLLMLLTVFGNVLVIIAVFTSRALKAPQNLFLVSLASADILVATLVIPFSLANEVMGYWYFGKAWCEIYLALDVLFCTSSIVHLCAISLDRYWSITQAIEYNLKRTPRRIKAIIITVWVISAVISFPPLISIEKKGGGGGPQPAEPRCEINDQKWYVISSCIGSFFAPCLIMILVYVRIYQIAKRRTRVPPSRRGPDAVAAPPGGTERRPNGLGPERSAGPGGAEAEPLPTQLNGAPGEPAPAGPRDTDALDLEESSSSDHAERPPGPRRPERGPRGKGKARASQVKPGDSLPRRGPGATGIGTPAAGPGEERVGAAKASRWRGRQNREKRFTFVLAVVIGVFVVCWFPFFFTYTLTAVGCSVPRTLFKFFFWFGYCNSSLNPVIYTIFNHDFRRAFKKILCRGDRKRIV
Protocol: The [^35S]GTPγs binding assay constitutes a functional measure of the interaction of the receptor and the G-protein and is a useful tool to distinguish between agonists (increasing the nucleotide binding), inverse agonists (decreasing the nucleotide binding), and neutral antagonists (not affecting the nucleotide binding) of GPCRs.^20 Experiments were performed in low-affinity receptor conditions for agonists (presence of guanine nucleotides and sodium in the medium), and therefore, typical potency values are two-three logarithmic units lower than affinity values obtained in radioligand receptor binding experiments.^20
(§1) Preparation of membranes. Neural membranes (P2 fractions) were prepared from the PFC of human brains obtained at autopsy in the Instituto Vasco de Medicina Legal, Bilbao, Spain. Postmortem human brain samples of each subject (˜1 g) were homogenized using a Teflon-glass grinder (10 up-and-down strokes at 1500 rpm) in 30 volumes of homogenization buffer (1 mM MgCl2, and 5 mM Tris-HCl, pH 7.4) supplemented with 0.25 M sucrose. The crude homogenate was centrifuged for 5 min at 1000×g ([…]) and the supernatant was centrifuged again for 10 min at 40000×g (4° C.). The resultant pellet was washed twice in 20 volumes of homogenization buffer and recentrifuged in similar conditions. Aliquots of 1 mg protein were stored at −70° C. until assay.
[^35S]GTPγs binding assays. The incubation buffer for measuring [^35S]GTPγs binding to brain membranes contained, in a total volume of 500 μL, 1 mM EGTA, 3 mM MgCl2, 100 mM NaCl, […], 50 mM Tris-HCl at pH 7.4 and 0.5 nM [^35S]GTPγs. Proteins aliquots were thawed and re-suspended in the same buffer. The incubation was started by addition of the membrane suspension (40 μg of membrane proteins) to the previous mixture and was performed at 30° C. for 120 min with shaking. In order to evaluate the influence of the compounds on [^35S]GTPγs binding, 8 concentrations (10^−10 to 10^−3M) of the different compounds were added to the assay. Incubations were terminated by adding 3 mL of ice-cold re-suspension buffer followed by rapid filtration through Whatman GF/C filters pre-soaked in the same buffer. The filters were rinsed twice with 3 mL of ice-cold re-suspension buffer, transferred to vials containing 5 mL of OptiPhase HiSafe II cocktail (Wallac, UK) and the radioactivity trapped was determined by liquid scintillation spectrometry (Packard 2200CA). […] Non-specific binding of the radioligand was defined as the remaining [^35S]GTPγs binding in the presence of 10 μM unlabelled GTPγs.

α2-ARs [4] = target: T1, α2-ARs; test: [3H]RX821002 competition binding assay in human brain PFC membranes; settings: human brain tissue in vitro
[5] = tested on: extracellular NA levels in the PFC; test: In vivo microdialysis in the PFC, extracellular NA; design: species or system male Sprague Dawley rats; settings: for Emax of increase in extracellular NA levels: local administration by reverse dialysis 1-100 μM in PFC, percentage of basal values
Description: Intracerebral microdialysis is a neurochemical technique that has been applied extensively in pharmacological studies aimed at investigating the effect of different drugs on brain neurotransmission. This technique allows one to collect a representative concentration of different neurotransmitters of the area where the probe is implanted while the animals are awake and freely moving.^21
Most antidepressant drugs are able to increase NA extracellular concentrations in different brain areas as the PFC, an area implicated in depression disease. Considering that α2-ARs exert a tonic inhibitory action on NA release from the noradrenergic terminals we assessed the ability of these two new compounds to increase NA extracellular concentration in this area. First, we tested the drugs when administered locally in order to confirm their antagonistic activity over α2-ARs in vivo.
A second step was to study the effect of these compounds increasing NA extracellular concentrations when administered systemically.
In Vivo Microdialysis assays. The experiments were carried out in male Sprague Dawley rats weighing between 250 g and 300 g. At the beginning of the experiments, animals were anaesthetized with chloral hydrate (400 mg/kg i.p.) and a microdialysis probe was implanted by stereotaxic surgery into prefrontal cortex (PFC) brain area. The coordinates selected for the PFC were as follows: AP (anterior to bregma) +2.8 mm, L (lateral from the mid-sagittal suture) +1 mm, DV (ventral from the dura surface) −5 mm.^22 After 24 hours for animal recovery, perfusion fluid (artificial cerebrospinal fluid) is pumped through the probe at a flow rate of 1 μl/min. In the semipermeable membrane, that is the critical side of the probe and is placed on the selected area, molecules flow into and out the cannulae by diffusion. Therefore, microdialysis technique allows local administration of substrates dissolved in the perfusion fluids.
When drugs were locally administered, they were dissolved in a CSF and applied during 70 min via dialysis probe implanted in the PFC in increasing concentrations of 1, 10 and 100 μM. The compounds systemically administered were dissolved in saline and injected intraperitoneally.
Samples, collected with the microdialysis procedure (every 35 min), were analyzed by HPLC with electrochemical detection. NA concentrations were monitorizated by an amperometric detector (Hewlett-Packard model 1049A) at an oxidizing potential of +650 mV. The movil phase (12 mM citric acid, 1 mM EDTA, 0.7 mM octylsodio sulfate, pH 5 and 10% methanol) was filtered, degassed (Hewlett-Packard model 1100 degasser) and delivered at a flow rate of 0.2 ml/min by a Hewlett-Packard model 1100 pump. Stationary phase was a column of 150×2.1 mm (Thermo Electron Corporation, U.S.A.). Samples (injection volume 37 μl) were injected and NA analized in a run time of 10 min. Solution of standard noradrenaline was injected every working day to create a new calibration table.
The mean values of the first three samples before substrate administration were considered as 100% basal value. All measures of extracellular NA concentrations are expressed as percentage of the baseline value±s.e.mean. One way analysis of variance (ANOVA) for control group or two way ANOVA between control and each treated group was assessed for statistical analysis. After the experiments, rats were sacrificed with an overdose of chloral hydrate and the brains were dissected to check the correct implantation of the probe.

mice = test: Tail suspension test; format: in vivo; settings: compared with saline control, FIG. 4
Description: The tail suspension test as illustrated in FIG. 4 has become one of the most widely used models for assessing antidepressant-like activity in mice. The test is based on the fact that animals subjected to the short-term, inescapable stress of being suspended by their tail, will develop an immobile posture. Antidepressant medications encourage the animal to struggle and promote the occurrence of escape-related behaviour.

α2-ARs [6] = test: [3H]RX821002 competition binding assay in human brain PFC membranes; settings: 31a vs 10b, 31b vs 17b
Protocol: as §1
[^3H]RX821002 binding assays. […] Incubations were terminated by diluting the samples with 5 ml of ice-cold Tris incubation buffer (4° C.). Membrane bound [^3H]RX821002 was separated by vacuum filtration through Whatman GF/C glass fibre filters. Then, the filters were rinsed twice with 5 ml of incubation buffer and transferred to minivials containing 3 ml of OptiPhase “HiSafe” II cocktail and counted for radioactivity by liquid scintillation spectrometry. Specific binding was determined and plotted as a function of the compound concentration. Non-specific binding was determined in the presence of adrenaline (10^−5 M).
Analysis of binding data. Analysis of competition experiments to obtain the inhibition constant (Ki) were performed by nonlinear regression using the GraphPad Prism program. All experiments were analysed assuming a one-site model of radioligand binding. Ki values were normalized to pKi values.

Structure (SMILES): c1cc2c(cc1NC1=NCCN1)OCO2 [Compound 3]
affinity values (pKi) for the α2-ARs (α2-ARs [1]): 7.33 | agonist or antagonist nature at α2-ARs, previously reported (α2-ARs [2]): α2-AR antagonists; also recorded: antagonist

Structure (SMILES): N=C(N)Nc1ccc2c(c1)OCO2 [Compound 3b]
affinity values (pKi) for the α2-ARs (α2-ARs [1]): 6.40

Emax (α2-ARs [3]): 111%
Structure (SMILES): c1ccc(Cc2ccc(NC3=NCCN3)cc2)cc1 [Compound 4b, 1-(2-imidazolidinyliminio)-4-benzylbenzene]

Structure (SMILES): Cc1ccc(NC2=NCCN2)cc1 [Compound 6b, 1-(2-imidazolidinylimino)-4-methylbenzene]
agonistic or antagonistic properties in [35S]GTPγS experiments (α2-ARs [3]): agonistic properties | stimulation of [35S]GTPγS binding by the compound on its own (α2-ARs [3]): stimulated binding | Emax (α2-ARs [3]): 97% | affinity towards the α2-ARs compared with references (α2-ARs [4]): within the range of those of Idazoxan and/or Clonidine

Structure (SMILES): Cc1ccc(NC2=NCCN2)cc1C [Compound 8b, 1-(2-imidazolidinylimino)-3,4-dimethylbenzene]
agonistic or antagonistic properties in [35S]GTPγS experiments (α2-ARs [3]): agonistic properties | stimulation of [35S]GTPγS binding by the compound on its own (α2-ARs [3]): stimulated binding | Emax (α2-ARs [3]): 89% | affinity towards the α2-ARs compared with references (α2-ARs [4]): within the range of those of Idazoxan and/or Clonidine

Structure (SMILES): c1cc2c(cc1NC1=NCCN1)CCCC2 [Compound 10b, imidazolidin-2-ylidene-(5,6,7,8-tetrahydro-naphthalen-2-yl)-amine]
agonistic or antagonistic properties in [35S]GTPγS experiments (α2-ARs [3]): agonistic properties | stimulation of [35S]GTPγS binding by the compound on its own (α2-ARs [3]): stimulated binding | Emax (α2-ARs [3]): 100% | affinity towards the α2-ARs compared with references (α2-ARs [4]): within the range of those of Idazoxan and/or Clonidine

agonistic or antagonistic properties in [35S]GTPγS experiments (α2-ARs [3]): antagonistic properties | stimulation of [35S]GTPγS binding by the compound on its own (α2-ARs [3]): did not stimulate binding | ability to cross the blood brain barrier (BBB) ([5]; deduced from NA increase after systemic administration): able to cross the blood brain barrier
Structure (SMILES): N=C(N)Nc1ccc2c(c1)CCCC2 [Compound 17b, N-(5,6,7,8-tetrahydro-naphthalen-2-yl)-guanidine]
Emax of increase in extracellular NA levels [5]: 326±113% | α2-AR antagonist properties in vivo ([5]; local and systemic administration, rats): α2-AR antagonist properties in vivo | increase of NA extracellular concentration, maximal effect ([5]; systemic (intraperitoneal) administration, evaluated in PFC): 373±73% | immobility period (mice): slightly shorter immobility period than the saline control | affinity towards the α2-ARs compared with references (α2-ARs [4]): within the range of those of Idazoxan and/or Clonidine

agonistic or antagonistic properties in [35S]GTPγS experiments (α2-ARs [3]): agonistic properties | stimulation of [35S]GTPγS binding by the compound on its own (α2-ARs [3]): did not stimulate binding
Structure (SMILES): c1cc2c(cc1NC1=NCCN1)Cc1ccc(NC3=NCCN3)cc1C2 [Compound 18b, 2,6-di(2-imidazolidinylimino)-9,10-dihydroanthracene]
affinity towards the α2-ARs compared with references (α2-ARs [4]): within the range of those of Idazoxan and/or Clonidine

agonistic or antagonistic properties in [35S]GTPγS experiments (α2-ARs [3]): agonistic properties | stimulation of [35S]GTPγS binding by the compound on its own (α2-ARs [3]): did not stimulate binding
Structure (SMILES): N=C(N)Nc1ccc2c(c1)Cc1ccc(NC(=N)N)cc1C2 [Compound 21b, 2,6-diguanidino-9,10-dihydroanthracene]
affinity towards the α2-ARs compared with references (α2-ARs [4]): within the range of those of Idazoxan and/or Clonidine

Structure (SMILES): c1ccc(Nc2ccc(NC3=NCCN3)cc2)cc1 [Compound 25a]
affinity values (pKi) for the α2-ARs (α2-ARs [1]): 6.56

Structure (SMILES): N=C(N)Nc1ccc(Nc2ccccc2)cc1 [Compound 25b]
affinity values (pKi) for the α2-ARs (α2-ARs [1]): 6.83

Structure (SMILES): c1ccc(Oc2ccc(NC3=NCCN3)cc2)cc1 [Compound 26a]
affinity values (pKi) for the α2-ARs (α2-ARs [1]): 6.58

Structure (SMILES): N=C(N)Nc1ccc(Oc2ccccc2)cc1 [Compound 26b]
affinity values (pKi) for the α2-ARs (α2-ARs [1]): 6.05

Structure (SMILES): c1ccc(Sc2ccc(NC3=NCCN3)cc2)cc1 [Compound 27a]
affinity values (pKi) for the α2-ARs (α2-ARs [1]): 6.62

Structure (SMILES): N=C(N)Nc1ccc(Sc2ccccc2)cc1 [Compound 27b]
affinity values (pKi) for the α2-ARs (α2-ARs [1]): 6.30

Structure (SMILES): COc1ccc(NC2=NCCN2)cc1 [Compound 28a]
affinity values (pKi) for the α2-ARs (α2-ARs [1]): 7.77

Structure (SMILES): COc1ccc(NC(=N)N)cc1 [Compound 28b]
affinity values (pKi) for the α2-ARs (α2-ARs [1]): 6.39

Structure (SMILES): CSc1ccc(NC2=NCCN2)cc1 [Compound 29a]
affinity values (pKi) for the α2-ARs (α2-ARs [1]): 7.07

Structure (SMILES): CSc1ccc(NC(=N)N)cc1 [Compound 29b]
affinity values (pKi) for the α2-ARs (α2-ARs [1]): 6.40

Structure (SMILES): Nc1ccc(NC2=NCCN2)cc1 [Compound 30a]
affinity values (pKi) for the α2-ARs (α2-ARs [1]): 6.92

Structure (SMILES): N=C(N)Nc1ccc(N)cc1 [Compound 30b]
affinity values (pKi) for the α2-ARs (α2-ARs [1]): 5.58

Structure (SMILES): c1cc2c(cc1NC1=NCCN1)OCCO2 [Compound 31a]
pKi higher than methylene containing counterpart (α2-ARs [6]): 0.52 logarithmic units | affinity values (pKi) for the α2-ARs (α2-ARs [1]): 7.85

pKi higher than methylene containing counterpart (α2-ARs [6]): 1.10 logarithmic units
Structure (SMILES): N=C(N)Nc1ccc2c(c1)OCCO2 [Compound 31b]
affinity values (pKi) for the α2-ARs (α2-ARs [1]): 8.21 | agonist or antagonist nature at α2-ARs, previously reported (α2-ARs [2]): agonist

Structure (SMILES): c1ccc2c(c1)OCC(C1=NCCN1)O2 (stereo not drawn) [Idazoxan, reference compound]
Emax of increase in extracellular NA levels [5]: 235±42%
